Test results reported in patent US10987354B2, “Inhibitors of influenza virus replication and uses thereof” (SUNSHINE LAKE PHARMA CO., LTD., priority 2016, dated 2021).
Read-outs that look alike come from different tables or passages of the source.

How the values were obtained:
[1] = test system: Influenza B virus-B/Lee/40; assay: microbe, parasite or virus in culture; assay type: cell-based; settings: 72 h, read-out: EC50, inhibitory activity against influenza virus (Influenza B virus-B/Lee/40)
virus H1N1 A/Weiss/43 = assay: microbe, parasite or virus in culture; assay type: cell-based; settings: Influenza A virus, H1N1, 120 h; MDCK cells, CPE, 5 days, CCK-8; read-out: EC50, inhibitory activity against influenza virus (A/Weiss/43(H1N1))
in vivo = settings: SD, rat
Description: The compounds disclosed herein were administered in form of a saline solution containing 5% DMSO, 5% Kolliphor HS 15 and 90% Saline. For intravenous administration (iv), the animals were administered with a dose of 1 mg/kg, and blood samples (0.3 mL) were collected at the time points of 0.083, 0.25, 0.5, 1.0, 2.0, 5.0, 7.0 and 24 h after drug administration, then each blood sample was processed to separate plasma by centrifugation at 3000 rpm or 4000 rpm for 10 minutes. For oral administration (po), the animals were administered with a dose of 5 mg/kg, and blood samples (0.3 mL) were collected at the time points of 0.25, 0.5, 1.0, 2.0, 5.0, 7.0 and 24 h after drug administration, then each blood sample was processed to separate plasma by centrifugation at 3000 rpm or 4000 rpm for 10 minutes. Plasma samples were collected and stored at −20° C. or −70° C. until LC/MS/MS analysis.

[2] = MDCK cells, CPE, 3 days, CellTiter

SMILES	EC50 [1, 2] [nM]	EC50 (virus H1N1 A/Weiss/43) [nM]	AUC(0-inf) (in vivo; iv, 1 mg/kg) [ng·h/mL]	AUC(0-t) (in vivo; iv, 1 mg/kg) [ng·h/mL]	clearance (in vivo; iv, 1 mg/kg) [mL/min/kg]	AUC(0-inf) (in vivo; po, 5 mg/kg) [ng·h/mL]	AUC(0-t) (in vivo; po, 5 mg/kg) [ng·h/mL]	EC50 ([1]; MDCK) [nM]
O=C(O)[C@H]1C2CCC(CC2)[C@@H]1Nc1nc(-c2c[nH]c3ncc(Cl)nc23)nc(-n2cccc2)c1F [Example 60, (2S,3S)-3-((2-(2-chloro-5H-pyrrolo[2,3-b]pyrazin-7-yl)-5-fluoro-6-(1H-pyrrol-1-yl)pyrimidin-4-yl)amino)bicyclo[2.2.2]octane-2-carboxylic Acid]	26400							
O=C(O)[C@H]1C2CCC(CC2)[C@@H]1Nc1nc(-c2c[nH]c3ncc(Cl)nc23)nc(-c2ccc(F)s2)c1F [Example 62, (2S,3S)-3-((2-(2-chloro-5H-pyrrolo[2,3-b]pyrazin-7-yl)-5-fluoro-6-(5-fluorothiophen-2-yl)pyrimidin-4-yl)amino)bicyclo[2.2.2]octane-2-carboxylic Acid]		0.011	5510	5390	50.7	25000	24400	
O=C(O)[C@H]1C2CCC(CC2)[C@@H]1Nc1nc(-c2c[nH]c3ncc(Cl)nc23)ncc1F [Compound A, reference compound]		33.2	894	894	312	2910	2880	
CC(C)n1ccc2c(N[C@H]3C4CCC(CC4)[C@@H]3C(=O)O)nc(-c3c[nH]c4ncc(Cl)nc34)nc21 [Example 20, (2S,3S)-3-((2-(2-chloro-5H-pyrrolo[2,3-b]pyrazin-7-yl)-7-isopropyl-7H-pyrrolo[2,3-d]pyrimidin-4-yl)amino)bicyclo[2.2.2]octane-2-carboxylic Acid]	1620	0.192						
O=C(O)[C@H]1C2CCC(CC2)[C@@H]1Nc1cc(N2CCN(c3ccccc3)CC2)nc(-c2c[nH]c3ncc(Cl)nc23)n1 [Example 39, (2S,3S)-3-((2-(2-chloro-5H-pyrrolo[2,3-b]pyrazin-7-yl)-6-(4-phenylpiperazin-1-yl)pyrimidin-4-yl)amino)bicyclo[2.2.2]octane-2-carboxylic Acid]		1.22						
O=C(O)C1C2CCC(CC2)C1Nc1cc(-c2ccco2)nc(-c2c[nH]c3ncc(Cl)nc23)n1 (racemic) [Example 1, (+/−)-trans-3-((2-(2-chloro-5H-pyrrolo[2,3-b]pyrazin-7-yl)-6-(furan-2-yl)pyrimidin-4-yl)amino)bicyclo[2.2.2]octane-2-carboxylic Acid]		3.89						
O=C(O)[C@H]1C2CCC(CC2)[C@@H]1Nc1nc(-c2c[nH]c3ncc(Cl)nc23)nc(-c2ccc(Cl)s2)c1F [Example 29, (2S,3S)-3-((2-(2-chloro-5H-pyrrolo[2,3-b]pyrazin-7-yl)-6-(5-chlorothiophen-2-yl)-5-fluoropyrimidin-4-yl)amino)bicyclo[2.2.2]octane-2-carboxylic Acid]		0.013	4980	4830	56.3	23800	23700	
O=C(O)[C@H]1C2CCC(CC2)[C@@H]1Nc1nc(-c2c[nH]c3ncc(Cl)nc23)nc(-c2nccs2)c1F [Example 49, (2S,3S)-3-((2-(2-chloro-5H-pyrrolo[2,3-b]pyrazin-7-yl)-5-fluoro-6-(thiazol-2-yl)pyrimidin-4-yl)amino)bicyclo[2.2.2]octane-2-carboxylic Acid]		0.521	3950	3940	71.5	3550	3500	
Cn1cc(-c2nc(-c3c[nH]c4ncc(Cl)nc34)nc(NC3C4CCC(CC4)C3C(=O)O)c2F)cn1 (racemic) [Example 5, (+/−)-trans-3-((2-(2-chloro-5H-pyrrolo[2,3-b]pyrazin-7-yl)-5-fluoro-6-(1-methyl-1H-pyrazol-4-yl)pyrimidin-4-yl)amino)bicyclo[2.2.2]octane-2-carboxylic Acid]		3.52						
CC(C)(C)[C@@H](CC(=O)O)Nc1nc(-c2c[nH]c3ncc(Cl)nc23)nc(-c2ccco2)c1F [Example 8, (R)-3-((2-(2-chloro-5H-pyrrolo[2,3-b]pyrazin-7-yl)-5-fluoro-6-(furan-2-yl)pyrimidin-4-yl)amino)-4,4-dimethylpentanoic Acid]		0.394	1550	1540	187	5440	5420	
O=C(O)[C@H]1C2CCC(CC2)[C@@H]1Nc1nc(-c2c[nH]c3ncc(Cl)nc23)nc(-c2cccs2)c1F [Example 13, (2S,3S)-3-((2-(2-chloro-5H-pyrrolo[2,3-b]pyrazin-7-yl)-5-fluoro-6-(thiophen-2-yl)pyrimidin-4-yl)amino)bicyclo[2.2.2]octane-2-carboxylic Acid]		0.017	10100	9900	27.8	29000	27400	
O=C(O)C1C2CCC(CC2)C1Nc1nc(-c2c[nH]c3ncc(F)cc23)ncc1F (stereo not drawn) [JNJ-872, reference compound]								> 50000
N#Cc1ccc(-c2nc(-c3c[nH]c4ncc(Cl)nc34)nc(N[C@H]3C4CCC(CC4)[C@@H]3C(=O)O)c2F)s1 [Example 63, (2S,3S)-3-((2-(2-chloro-5H-pyrrolo[2,3-b]pyrazin-7-yl)-6-(5-cyanothiophen-2-yl)-5-fluoropyrimidin-4-yl)amino)bicyclo[2.2.2]octane-2-carboxylic acid]		0.079						
O=C(O)[C@H]1C2CCC(CC2)[C@@H]1Nc1nc(-c2c[nH]c3ncc(Cl)nc23)nc(-c2ccc(C3CC3)s2)c1F [Example 27, (2S,3S)-3-((2-(2-chloro-5H-pyrrolo[2,3-b]pyrazin-7-yl)-6-(5-cyclopropylthiophen-2-yl)-5-fluoropyrimidin-4-yl)amino)bicyclo[2.2.2]octane-2-carboxylic Acid]		0.024	1960	1960	144	7250	7170	
CC(C)Cn1ccc2c(N[C@H]3C4CCC(CC4)[C@@H]3C(=O)O)nc(-c3c[nH]c4ncc(Cl)nc34)nc21 [Example 66, (2S,3S)-3-((2-(2-chloro-5H-pyrrolo[2,3-b]pyrazin-7-yl)-7-isobutyl-7H-pyrrolo[2,3-d]pyrimidin-4-yl)amino)bicyclo[2.2.2]octane-2-carboxylic Acid]		0.274	3480	3470	82.5	12600	12500	
O=C(O)[C@H]1C2CCC(CC2)[C@@H]1Nc1nc(-c2c[nH]c3nccnc23)nc(-c2cccs2)c1F [Example 64, (2S,3S)-3-((5-fluoro-2-(5H-pyrrolo[2,3-b]pyrazin-7-yl)-6-(thiophen-2-yl)pyrimidin-4-yl)amino)bicyclo[2.2.2]octane-2-carboxylic Acid]		0.887						
